BindingDB's records for doi:10.7270/Q20R9MZM (Merrell Dow Research Institute, 1990)

Molecular target: T1, Prunasin hydrolase (Prunus dulcis, UniProt H9ZGD9)
T1 sequence (H9ZGD9 whole entry): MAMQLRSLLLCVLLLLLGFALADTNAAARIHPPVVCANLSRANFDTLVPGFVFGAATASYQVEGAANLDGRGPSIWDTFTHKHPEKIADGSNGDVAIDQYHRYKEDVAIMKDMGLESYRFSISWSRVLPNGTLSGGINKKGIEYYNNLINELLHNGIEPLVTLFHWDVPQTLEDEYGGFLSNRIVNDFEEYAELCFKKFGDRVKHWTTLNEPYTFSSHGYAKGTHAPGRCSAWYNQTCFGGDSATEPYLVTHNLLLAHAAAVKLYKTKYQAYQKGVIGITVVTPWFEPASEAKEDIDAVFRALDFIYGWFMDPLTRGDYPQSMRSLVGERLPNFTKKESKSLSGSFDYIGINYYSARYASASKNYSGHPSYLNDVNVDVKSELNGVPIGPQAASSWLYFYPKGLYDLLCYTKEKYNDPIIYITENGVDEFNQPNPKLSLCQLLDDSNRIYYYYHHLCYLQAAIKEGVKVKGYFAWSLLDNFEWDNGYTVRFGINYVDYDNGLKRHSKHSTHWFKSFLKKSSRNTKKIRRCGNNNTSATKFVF
Assay: Enzyme Assay
Conditions: pH 5.6; 37 °C
Protocol: The enzyme activity was measured by monitoring the increase in absorbance at 400 nm due to hydrolysis of para-nitrophenyl-beta-glucopyranoside. All assays were carried out in the presence of 0.05M sodium acetate buffer (pH 5.6) and 0.1 mM EDTA at 37 C.

Row | SMILES | Ki
1 | OC[C@H]1O[C@@H](Oc2ccc(C(F)F)cc2)[C@H](O)[C@@H](O)[C@@H]1O [Glucosidase inhibitor, 6a] | 1700 µM
2 | COc1cc(C(F)F)ccc1O[C@@H]1O[C@H](CO)[C@@H](O)[C@H](O)[C@H]1O [Glucosidase inhibitor, 6b] | 60 µM
3 | CCOc1cc(C(F)F)ccc1O[C@@H]1O[C@H](CO)[C@@H](O)[C@H](O)[C@H]1O [Glucosidase inhibitor, 6c] | 100 µM
4 | COc1cc(C(F)F)cc(OC)c1O[C@@H]1O[C@H](CO)[C@@H](O)[C@H](O)[C@H]1O [Glucosidase inhibitor, 6d] | 1900 µM

Second part, the molecule after the results:

Row | Ki | SMILES
5 | 3700 µM | OC[C@H]1O[C@@H](Oc2ccccc2C(F)F)[C@H](O)[C@@H](O)[C@@H]1O [Glucosidase inhibitor, 6e]
6 | 900 µM | COc1ccc(O[C@@H]2O[C@H](CO)[C@@H](O)[C@H](O)[C@H]2O)c(C(F)F)c1 [Glucosidase inhibitor, 6f]
7 | 800 µM | COc1cc(CF)ccc1O[C@@H]1O[C@H](CO)[C@@H](O)[C@H](O)[C@H]1O [Glucosidase inhibitor, 11]
